Measured values: patent US9907790B2, “Solid forms of an ASK1 inhibitor” (Gilead Sciences, Inc., priority 2014, dated 2018)
≈ marks a conversion by molar mass, not a printed value.

Assays:
Type in all cases: physicochemical
[1] = High humidity stress test at 75% RH/RT
[2] = Stable form screen of Compound I (suspension in solvents at RT, solids analysed by XRPD); details: starting from Compound I Form I
Description: Compound I Form I was suspended with stirring in capped glass vials at RT. Samples from the suspensions were centrifuged/filtered and the isolated solids and liquids were analyzed. Solids were analyzed by XRPD and liquids were analyzed for solubility by […]. Sampling and analysis were performed after one day and greater than fourteen days.

[3] = Form change on heating, drying or exposure to ambient conditions; details: for form change at ambient conditions: ambient temperature and humidity / storage at ambient conditions; for form change upon drying: drying (air-drying at RT)
Description: Form V has only been truly isolated by growth of single crystals.
Isolated solids were dried with filter paper to remove residual solvents and analyzed by DSC, TGA and KF. […] (FIG. 45).
The sample was stirred for more than two months before being placed into storage without agitation and at ambient conditions. […] The material was collected by vacuum filtration and dried under ambient conditions. […] (FIG. 48).

[4] = Solubility of Compound I in EtOH; details: ethanol, organic solvent or mixture
Description: The crystallization was then continued in line with Method 1 outlined above. After filtration, the Form I solids are dried in a vacuum oven at about 45-50° C.

Compound: 5-(4-cyclopropyl-1H-imidazol-1-yl)-N-(6-(4-isopropyl-4H-1,2,4-triazol-3-yl)pyridin-2-yl)-2-fluoro-4-methylbenzamide edisylate [Compound I Edisylate Form I]
- deliquescence in high humidity stress test [1]: did not show any evidence of deliquescence

Compound: 5-(4-cyclopropyl-1H-imidazol-1-yl)-N-(6-(4-isopropyl-4H-1,2,4-triazol-3-yl)pyridin-2-yl)-2-fluoro-4-methylbenzamide gentisate [Compound I Gentisate Form II]
- deliquescence in high humidity stress test [1]: did not show any evidence of deliquescence

Compound: 5-(4-cyclopropyl-1H-imidazol-1-yl)-N-(6-(4-isopropyl-4H-1,2,4-triazol-3-yl)pyridin-2-yl)-2-fluoro-4-methylbenzamide glutarate [Compound I Glutarate Form I]
- deliquescence in high humidity stress test [1]: did not show any evidence of deliquescence

Compound: 5-(4-cyclopropyl-1H-imidazol-1-yl)-N-(6-(4-isopropyl-4H-1,2,4-triazol-3-yl)pyridin-2-yl)-2-fluoro-4-methylbenzamide propyl gallate [Compound I Propyl Gallate Form I]
- deliquescence in high humidity stress test [1]: did not show any evidence of deliquescence

Compound: CCS(=O)(=O)O.Cc1cc(F)c(C(=O)Nc2cccc(-c3nncn3C(C)C)n2)cc1-n1cnc(C2CC2)c1 [Compound I Esylate Form I, 5-(4-cyclopropyl-1H-imidazol-1-yl)-N-(6-(4-isopropyl-4H-1,2,4-triazol-3-yl)pyridin-2-yl)-2-fluoro-4-methylbenzamide esylate]
- deliquescence in high humidity stress test [1]: did not show any evidence of deliquescence

Compound: Cc1cc(F)c(C(=O)Nc2cccc(-c3nncn3C(C)C)n2)cc1-n1cnc(C2CC2)c1 [Compound I Form I, 5-(4-cyclopropyl-1H-imidazol-1-yl)-N-(6-(4-isopropyl-4H-1,2,4-triazol-3-yl)pyridin-2-yl)-2-fluoro-4-methylbenzamide]
- 14+ Day XRPD ([2]; suspended in DCM at RT): mixture of Compound I Form II and Compound I Form V
- 24 Hour XRPD ([2]; suspended in DCM at RT): mixture of Forms II and V

Compound: Cc1cc(F)c(C(=O)Nc2cccc(-c3nncn3C(C)C)n2)cc1-n1cnc(C2CC2)c1 [Compound I Form II, 5-(4-cyclopropyl-1H-imidazol-1-yl)-N-(6-(4-isopropyl-4H-1,2,4-triazol-3-yl)pyridin-2-yl)-2-fluoro-4-methylbenzamide]
- form change after heating ([3]; heating to about 110° C.): No form change
- form change after heating ([3]; heating up to about 180° C.): re-crystallizes to Compound I Form VI

Compound: Cc1cc(F)c(C(=O)Nc2cccc(-c3nncn3C(C)C)n2)cc1-n1cnc(C2CC2)c1 [Compound I Form IX, 5-(4-cyclopropyl-1H-imidazol-1-yl)-N-(6-(4-isopropyl-4H-1,2,4-triazol-3-yl)pyridin-2-yl)-2-fluoro-4-methylbenzamide]
- form change at ambient conditions [3]: converts to Form I

Compound: Cc1cc(F)c(C(=O)Nc2cccc(-c3nncn3C(C)C)n2)cc1-n1cnc(C2CC2)c1 [Compound I Form V, 5-(4-cyclopropyl-1H-imidazol-1-yl)-N-(6-(4-isopropyl-4H-1,2,4-triazol-3-yl)pyridin-2-yl)-2-fluoro-4-methylbenzamide]
- form change upon drying [3]: readily desolvates to Compound I Form II
- form change upon drying ([3]; listed as Form V): converting to Form II

Compound: Cc1cc(F)c(C(=O)Nc2cccc(-c3nncn3C(C)C)n2)cc1-n1cnc(C2CC2)c1 [Compound I Form VIII, 5-(4-cyclopropyl-1H-imidazol-1-yl)-N-(6-(4-isopropyl-4H-1,2,4-triazol-3-yl)pyridin-2-yl)-2-fluoro-4-methylbenzamide]
- form change at ambient conditions [3]: rapidly loses water and converts to Compound I Form VI

Compound: Cc1cc(F)c(C(=O)Nc2cccc(-c3nncn3C(C)C)n2)cc1-n1cnc(C2CC2)c1.O=C(O)/C=C/C(=O)O [Compound I Fumarate Form I, 5-(4-cyclopropyl-1H-imidazol-1-yl)-N-(6-(4-isopropyl-4H-1,2,4-triazol-3-yl)pyridin-2-yl)-2-fluoro-4-methylbenzamide fumarate]
- deliquescence in high humidity stress test [1]: did not show any evidence of deliquescence

Compound: Cc1cc(F)c(C(=O)Nc2cccc(-c3nncn3C(C)C)n2)cc1-n1cnc(C2CC2)c1.O=C(O)CO [Compound I Glycolate Form I, 5-(4-cyclopropyl-1H-imidazol-1-yl)-N-(6-(4-isopropyl-4H-1,2,4-triazol-3-yl)pyridin-2-yl)-2-fluoro-4-methylbenzamide glycolate]
- deliquescence in high humidity stress test [1]: did not show any evidence of deliquescence

Compound: Cc1cc(F)c(C(=O)Nc2cccc(-c3nncn3C(C)C)n2)cc1-n1cnc(C2CC2)c1.Cl [Compound I HCl Form I, 5-(4-cyclopropyl-1H-imidazol-1-yl)-N-(6-(4-isopropyl-4H-1,2,4-triazol-3-yl)pyridin-2-yl)-2-fluoro-4-methylbenzamide hydrochloride]
- deliquescence in high humidity stress test [1]: did not show any evidence of deliquescence

Compound: Cc1cc(F)c(C(=O)Nc2cccc(-c3nncn3C(C)C)n2)cc1-n1cnc(C2CC2)c1.O=C(O)C(O)C(O)C(=O)O [Compound I L-Tartrate Form I, 5-(4-cyclopropyl-1H-imidazol-1-yl)-N-(6-(4-isopropyl-4H-1,2,4-triazol-3-yl)pyridin-2-yl)-2-fluoro-4-methylbenzamide L-tartrate]
- deliquescence in high humidity stress test [1]: did not show any evidence of deliquescence

Compound: Cc1cc(F)c(C(=O)Nc2cccc(-c3nncn3C(C)C)n2)cc1-n1cnc(C2CC2)c1.O=C(O)/C=C\C(=O)O [Compound I Maleate Form I, 5-(4-cyclopropyl-1H-imidazol-1-yl)-N-(6-(4-isopropyl-4H-1,2,4-triazol-3-yl)pyridin-2-yl)-2-fluoro-4-methylbenzamide maleate]
- deliquescence in high humidity stress test [1]: did not show any evidence of deliquescence

Compound: CS(=O)(=O)O.Cc1cc(F)c(C(=O)Nc2cccc(-c3nncn3C(C)C)n2)cc1-n1cnc(C2CC2)c1 [Compound I Mesylate Form I, 5-(4-cyclopropyl-1H-imidazol-1-yl)-N-(6-(4-isopropyl-4H-1,2,4-triazol-3-yl)pyridin-2-yl)-2-fluoro-4-methylbenzamide mesylate]
- deliquescence in high humidity stress test [1]: did not show any evidence of deliquescence

Compound: Cc1cc(F)c(C(=O)Nc2cccc(-c3nncn3C(C)C)n2)cc1-n1cnc(C2CC2)c1.O=C(O)C(=O)O [Compound I Oxalate Form I, 5-(4-cyclopropyl-1H-imidazol-1-yl)-N-(6-(4-isopropyl-4H-1,2,4-triazol-3-yl)pyridin-2-yl)-2-fluoro-4-methylbenzamide oxalate]
- deliquescence in high humidity stress test [1]: did not show any evidence of deliquescence

Compound: Cc1cc(F)c(C(=O)Nc2cccc(-c3nncn3C(C)C)n2)cc1-n1cnc(C2CC2)c1.O=C(O)CCC(=O)O [Compound I Succinate Form I, 5-(4-cyclopropyl-1H-imidazol-1-yl)-N-(6-(4-isopropyl-4H-1,2,4-triazol-3-yl)pyridin-2-yl)-2-fluoro-4-methylbenzamide succinate]
- deliquescence in high humidity stress test [1]: did not show any evidence of deliquescence

Compound: Cc1cc(F)c(C(=O)Nc2cccc(-c3nncn3C(C)C)n2)cc1-n1cnc(C2CC2)c1.O=S(=O)(O)O [Compound I Sulfate Form I, 5-(4-cyclopropyl-1H-imidazol-1-yl)-N-(6-(4-isopropyl-4H-1,2,4-triazol-3-yl)pyridin-2-yl)-2-fluoro-4-methylbenzamide sulfate]
- deliquescence in high humidity stress test [1]: did not show any evidence of deliquescence

Compound: Cc1cc(F)c(C(=O)Nc2cccc(-c3nncn3C(C)C)n2)cc1-n1cnc(C2CC2)c1.Cc1ccc(S(=O)(=O)O)cc1 [Compound I Tosylate Form I, 5-(4-cyclopropyl-1H-imidazol-1-yl)-N-(6-(4-isopropyl-4H-1,2,4-triazol-3-yl)pyridin-2-yl)-2-fluoro-4-methylbenzamide tosylate]
- deliquescence in high humidity stress test [1]: did not show any evidence of deliquescence

Compound: Cc1cc(F)c(C(=O)Nc2cccc(-c3nncn3C(C)C)n2)cc1-n1cnc(C2CC2)c1 [Compound I, 5-(4-cyclopropyl-1H-imidazol-1-yl)-N-(6-(4-isopropyl-4H-1,2,4-triazol-3-yl)pyridin-2-yl)-2-fluoro-4-methylbenzamide]
- solubility [4]: ~20 mg/mL (≈ 44.9 mM)
- 14+ Day XRPD ([2]; suspended in 2-propanol at RT): Form I
- 24 Hour XRPD ([2]; suspended in 2-propanol at RT): Form I
- 14+ Day XRPD ([2]; suspended in ACN at RT): Form I
- 24 Hour XRPD ([2]; suspended in ACN at RT): Form I
- 24 Hour XRPD ([2]; suspended in DCM at RT): V, II
- 14+ Day XRPD ([2]; suspended in EtOAc at RT): Form I
- 24 Hour XRPD ([2]; suspended in EtOAc at RT): Form I
- 14+ Day XRPD ([2]; suspended in Ethanol at RT): Form I
- 24 Hour XRPD ([2]; suspended in Ethanol at RT): Form I
- 14+ Day XRPD ([2]; suspended in IPAC at RT): Form I
- 24 Hour XRPD ([2]; suspended in IPAC at RT): Form I
- 14+ Day XRPD ([2]; suspended in MTBE at RT): Form I
- 24 Hour XRPD ([2]; suspended in MTBE at RT): Form I
- 14+ Day XRPD ([2]; suspended in THF at RT): Form I
- 24 Hour XRPD ([2]; suspended in THF at RT): Form I
- 14+ Day XRPD ([2]; suspended in acetone at RT): Form I
- 24 Hour XRPD ([2]; suspended in acetone at RT): Form I
- 14+ Day XRPD ([2]; suspended in methanol at RT): Form I
- 24 Hour XRPD ([2]; suspended in methanol at RT): Form I
- 14+ Day XRPD ([2]; suspended in n-heptane at RT): Form I
- 24 Hour XRPD ([2]; suspended in n-heptane at RT): Form I
- 14+ Day XRPD ([2]; suspended in water at RT): Form I
- 24 Hour XRPD ([2]; suspended in water at RT): Form I
